Test results published in US5466700A (priority 1993, dated 1995).

Tests used:
[1] = test system: EEG amplitude in anesthetized dogs; conditions: dog, in vivo
[2] = test system: seizure activity on the EEG; conditions: dog, in vivo

Q: Which “EEG amplitude, left hemisphere (occipital frontal leads)” value [1] does the source give for C1CCc2nnnn2CC1 [pentylenetetrazole] here?
A: 35.6 ± 8.0 μV

Q: And the “EEG amplitude, right hemisphere (occipital frontal leads)” value [1]?
A: 31.5 ± 8.0 μV

Q: What about the “increase in EEG amplitude” value [1] of the same compound?
A: 344%

Q: What about the “cumulative dose at which seizure activity was observed” value [2] of the same compound?
A: 11 to 41 mg/kg

Q: What about the “dogs with seizure activity after pentylenetetrazole” value [2] of the same compound?
A: Seizure activity was observed in all the dogs
